Calls of active or inactive are those of the source. No cut-off for these calls is given here.
Assays:
[1] = Acute toxicity in male Kunming mouse assessed as effect on organ coefficient of spleen at 250 mg/kg administered via gavage; assay type: organism-based; details: in vivo, po
BV-2 [2] = assay: Antiinflammatory activity in LPS induced mouse BV-2 cells assessed as NO production at 10 uM by Griess reagent based assay relative to control
[3] = Cytotoxicity against mouse BV-2 cells assessed as cell viability at 1 uM by MTT assay relative to control; assay type: toxicity, cell-based; details: read-out: Activity
[4] = Acute toxicity in female Kunming mouse assessed as effect on GPT level in blood at 250 mg/kg administered via gavage by biochemical analysis; assay type: organism-based; details: in vivo, po
BV-2 [5] = assay: Antiinflammatory activity in LPS-induced mouse BV-2 cells assessed as decrease in TNF-alpha production preincubated for 2 hrs followed by LPS addition and measured after 24 hrs by qRT-PCR analysis; assay type: functional, cell-based; details: dose 5-10 µM, time 26.0 hrs
[6] = Acute toxicity in male Kunming mouse assessed as effect on organ coefficient of liver at 250 mg/kg administered via gavage; assay type: organism-based; details: in vivo, po
[7] = Acute toxicity in female Kunming mouse assessed as histopathological changes in kidney at 250 mg/kg administered via gavage by H and E staining based analysis; assay type: organism-based; details: in vivo, po
BV-2 [8] = assay: Antiinflammatory activity in LPS-induced mouse BV-2 cells assessed as downregulation of COX-2 protein expression level preincubated for 2 hrs followed by LPS addition and measured after 24 hrs by Western blot analysis; assay type: functional, cell-based; details: dose 5-10 µM, time 26.0 hrs
[9] = Acute toxicity in male Kunming mouse assessed as effect on body weight at 250 mg/kg administered via gavage for 14 days; assay type: organism-based; details: in vivo, po, 336 h, time 14 day
[10] = Acute toxicity in male Kunming mouse assessed as increase in GPT level in blood at 250 mg/kg administered via gavage by biochemical analysis; assay type: organism-based; details: in vivo, po
[11] = Acute toxicity in male Kunming mouse assessed as histopathological changes in spleen at 250 mg/kg administered via gavage by H and E staining based analysis; assay type: organism-based; details: in vivo, po
BV-2 [12] = assay: Inhibition of LPS-induced nuclear translocation of p-STAT3 in mouse BV-2 cells at 10 uM preincubated for 2 hrs followed LPS addition and measured after 3 hrs by DAPI staining based immunofluorescence assay; assay type: functional, cell-based; details: time 5.0 hrs
[13] = Acute toxicity in female Kunming mouse assessed as histopathological changes in lung at 250 mg/kg administered via gavage by H and E staining based analysis; assay type: organism-based; details: in vivo, po
[14] = Acute toxicity in male Kunming mouse assessed as histopathological changes in kidney at 250 mg/kg administered via gavage by H and E staining based analysis; assay type: organism-based; details: in vivo, po
[15] = Acute toxicity in female Kunming mouse assessed as effect on body weight at 250 mg/kg administered via gavage for 14 days; assay type: organism-based; details: in vivo, po, 336 h, time 14 day
[16] = Cytotoxicity against mouse BV-2 cells assessed as cell viability at 10 uM by MTT assay relative to control; assay type: toxicity, cell-based; details: read-out: Activity
BV-2 [17] = assay: Antiinflammatory activity in LPS-induced mouse BV-2 cells assessed as decrease in IL-6 production preincubated for 2 hrs followed by LPS addition and measured after 24 hrs by qRT-PCR analysis; assay type: functional, cell-based; details: dose 5-10 µM, time 26.0 hrs
[18] = Acute toxicity in male Kunming mouse assessed as effect on organ coefficient of kidney at 250 mg/kg administered via gavage; assay type: organism-based; details: in vivo, po

COc1c2n(cc(C(=O)Nc3cccc(-c4cn(-c5ccccc5Cl)nn4)c3)c1=O)C[C@@H]1OCC[C@@H](C)N1C2=O
Activity [1]: Non-toxic | level, % of control at 10 µM (BV-2 [2]): 43% | viability at 1 µM [3]: 88% | Activity [4]: Non-toxic | Activity (BV-2 [5]): Dose-dependent-effect | Activity [6]: Non-toxic | Activity [7]: Non-toxic | Activity (BV-2 [8]): Dose-dependent-effect | Activity [9]: Non-toxic | Activity [10]: Toxic | Activity [11]: Non-toxic | inhibition (BV-2 [12]): Active | Activity [13]: Non-toxic | Activity [14]: Non-toxic | Activity [15]: Non-toxic | viability at 10 µM [16]: 86.7% | Activity (BV-2 [17]): Dose-dependent-effect | Activity [18]: Non-toxic
